Source: patent US10919911B2, “Tricyclic ASK1 inhibitors” (Terns, Inc., priority 2018, dated 2021)

biological target: ASK1 kinase (Homo sapiens (Human), UniProt Q99683); assay: RBC Kinase Assay (33P-ATP radiometric, myelin basic protein substrate); assay type: biochemical; conditions: 20 ng ASK1 kinase, MBP substrate, 120 min at room temperature, 1% DMSO
Experimental: Example B1. RBC Kinase Assay Protocol
Base Reaction buffer: 20 mM Hepes (pH 7.5), 10 mM MgCl2, 1 mM EGTA, 0.02% Brij35, 0.02 mg/ml BSA, 0.1 mM Na3VO4, 2 mM DTT, and 1% DMSO were used for the assay.
Myelin base protein (MPB) was prepared in freshly prepared Base Reaction Buffer. 20 ng of ASK1 kinase was delivered into the substrate solution and gently mixed. Compounds in DMSO were delivered into the kinase reaction mixture (final DMSO concentration 1%). Commercially available 33P-ATP was delivered into the reaction mixture to initiate the reaction. The kinase reaction was incubated for 120 min. at room temperature. Reactions were spotted onto P81 ion exchange paper (Whatman #3698-915). Filters were washed extensively in 0.75% Phosphoric acid. Radioactivity on filters was read, and IC50 values were determined.

ASK1 kinase, sequence (Q99683 whole entry): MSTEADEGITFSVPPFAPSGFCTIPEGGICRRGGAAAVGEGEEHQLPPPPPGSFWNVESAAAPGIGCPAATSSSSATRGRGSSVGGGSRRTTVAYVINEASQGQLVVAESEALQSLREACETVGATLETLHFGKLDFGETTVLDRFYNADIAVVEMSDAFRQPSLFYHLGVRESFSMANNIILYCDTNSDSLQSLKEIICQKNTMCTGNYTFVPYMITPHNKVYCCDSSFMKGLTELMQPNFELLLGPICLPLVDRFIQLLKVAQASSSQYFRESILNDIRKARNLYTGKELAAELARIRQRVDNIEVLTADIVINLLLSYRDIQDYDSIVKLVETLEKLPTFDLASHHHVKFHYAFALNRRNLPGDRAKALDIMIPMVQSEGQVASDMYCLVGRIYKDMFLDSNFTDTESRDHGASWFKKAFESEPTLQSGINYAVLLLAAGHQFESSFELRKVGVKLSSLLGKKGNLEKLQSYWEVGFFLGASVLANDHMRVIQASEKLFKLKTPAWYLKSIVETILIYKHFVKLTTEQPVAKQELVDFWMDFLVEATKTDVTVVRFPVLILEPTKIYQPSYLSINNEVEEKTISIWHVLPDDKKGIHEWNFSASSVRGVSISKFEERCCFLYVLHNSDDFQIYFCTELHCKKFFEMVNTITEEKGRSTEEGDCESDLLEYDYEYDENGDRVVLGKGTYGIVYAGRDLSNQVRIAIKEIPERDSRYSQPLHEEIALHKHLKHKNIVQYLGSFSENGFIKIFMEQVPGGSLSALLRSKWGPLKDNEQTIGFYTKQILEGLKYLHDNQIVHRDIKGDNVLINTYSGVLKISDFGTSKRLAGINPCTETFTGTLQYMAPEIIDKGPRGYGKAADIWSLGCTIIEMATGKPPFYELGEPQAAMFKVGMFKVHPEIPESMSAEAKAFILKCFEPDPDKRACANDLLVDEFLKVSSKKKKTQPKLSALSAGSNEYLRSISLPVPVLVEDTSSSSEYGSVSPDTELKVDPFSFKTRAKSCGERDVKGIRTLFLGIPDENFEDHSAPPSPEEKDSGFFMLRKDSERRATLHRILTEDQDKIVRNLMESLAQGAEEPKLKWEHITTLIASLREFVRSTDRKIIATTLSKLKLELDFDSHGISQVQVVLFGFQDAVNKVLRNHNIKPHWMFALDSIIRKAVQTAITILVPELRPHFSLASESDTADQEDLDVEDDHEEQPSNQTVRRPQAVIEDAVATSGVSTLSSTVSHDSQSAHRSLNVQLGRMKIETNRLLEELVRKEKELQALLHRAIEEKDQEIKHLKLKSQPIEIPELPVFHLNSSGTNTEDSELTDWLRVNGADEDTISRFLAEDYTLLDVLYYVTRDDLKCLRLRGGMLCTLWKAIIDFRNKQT

Compound	IC50 [nM]
Cc1cc(F)c(C(=O)Nc2cccc3c2OC[C@@H](C)n2cnnc2-3)cc1-n1cnc(C2CC2)c1 [Example 1, (R)-5-(4-cyclopropyl-1H-imidazol-1-yl)-2-fluoro-4-methyl-N-(5-methyl-5,6-dihydrobenzo[f][1,2,4]triazolo[4,3-d][1,4]oxazepin-8-yl)benzamide]	5.8
Cc1cc(F)c(C(=O)Nc2cccc3c2OC[C@H](C)n2cnnc2-3)cc1-n1cnc(C2CC2)c1 [Example 2, (S)-5-(4-cyclopropyl-1H-imidazol-1-yl)-2-fluoro-4-methyl-N-(5-methyl-5,6-dihydrobenzo[f][1,2,4]triazolo[4,3-d][1,4]oxazepin-8-yl)benzamide]	9.1
Cc1cc(F)c(C(=O)Nc2cccc3c2OC[C@H](C)n2nnnc2-3)cc1-n1cnc(C2CC2)c1 [Example 3, (S)-5-(4-cyclopropyl-1H-imidazol-1-yl)-2-fluoro-4-methyl-N-(5-methyl-5,6-dihydrobenzo[f]tetrazolo[1,5-d][1,4]oxazepin-8-yl)benzamide]	5.7
C[C@@H]1COc2c(NC(=O)c3cc(-n4cnc(C5CC5)c4)ccn3)cccc2-c2nnnn21 [Example 4, (R)-4-(4-cyclopropyl-1H-imidazol-1-yl)-N-(5-methyl-5,6-dihydrobenzo[f]tetrazolo[1,5-d][1,4]oxazepin-8-yl)picolinamide]	5.7
Cc1cc(F)c(C(=O)Nc2cccc3c2OC[C@@H](C)n2nnnc2-3)cc1-n1cnc(C2CC2)c1 [Example 5, (R)-5-(4-cyclopropyl-1H-imidazol-1-yl)-2-fluoro-4-methyl-N-(5-methyl-5,6-dihydrobenzo[f]tetrazolo[1,5-d][1,4]oxazepin-8-yl)benzamide]	5.8
C[C@H]1COc2c(NC(=O)c3cc(-n4cnc(C5CC5)c4)ccn3)cccc2-c2nnnn21 [Example 6, (S)-4-(4-cyclopropyl-1H-imidazol-1-yl)-N-(5-methyl-5,6-dihydrobenzo[f]tetrazolo[1,5-d][1,4]oxazepin-8-yl)picolinamide]	7.7
Cc1cc(F)c(C(=O)Nc2cccc3c2OCCn2cnnc2-3)cc1-n1cnc(C2CC2)c1 [Example 7, 5-(4-cyclopropyl-1H-imidazol-1-yl)-N-(5,6-dihydrobenzo[f][1,2,4]triazolo[4,3-d][1,4]oxazepin-8-yl)-2-fluoro-4-methylbenzamide]	8.5
Cc1cc(F)c(C(=O)Nc2cccc3c2OC[C@@H](C2CC2)n2cnnc2-3)cc1-n1cnc(C2CC2)c1 [Example 8, (R)-5-(4-cyclopropyl-1H-imidazol-1-yl)-N-(5-cyclopropyl-5,6-dihydrobenzo[f][1,2,4]triazolo[4,3-d][1,4]oxazepin-8-yl)-2-fluoro-4-methylbenzamide]	11.7
Cc1cc(F)c(C(=O)Nc2cccc3c2OCC(C)(C)n2cnnc2-3)cc1-n1cnc(C2CC2)c1 [Example 9, 5-(4-cyclopropyl-1H-imidazol-1-yl)-N-(5,5-dimethyl-5,6-dihydrobenzo[f][1,2,4]triazolo[4,3-d][1,4]oxazepin-8-yl)-2-fluoro-4-methylbenzamide]	5.6
Cc1cc(F)c(C(=O)Nc2cccc3c2OCC2(CC2)n2cnnc2-3)cc1-n1cnc(C2CC2)c1 [Example 10, 5-(4-cyclopropyl-1H-imidazol-1-yl)-2-fluoro-4-methyl-N-(6H-spiro[benzo[f][1,2,4]triazolo[4,3-d][1,4]oxazepine-5,1′-cyclopropan]-8-yl)benzamide]	0.5
C[C@@H]1COc2c(NC(=O)c3cc(-n4cnc(C5CC5)c4)ccn3)cccc2-c2nncn21 [Example 11, (R)-4-(4-cyclopropyl-1H-imidazol-1-yl)-N-(5-methyl-5,6-dihydrobenzo[f][1,2,4]triazolo[4,3-d][1,4]oxazepin-8-yl)picolinamide]	5.4
Cc1cc(F)c(C(=O)Nc2cccc3c2OC[C@@H](C2CC2)n2nnnc2-3)cc1-n1cnc(C2CC2)c1 [Example 12, (R)-5-(4-cyclopropyl-1H-imidazol-1-yl)-N-(5-cyclopropyl-5,6-dihydrobenzo[f]tetrazolo[1,5-d][1,4]oxazepin-8-yl)-2-fluoro-4-methylbenzamide]	4.7
Cc1cc(F)c(C(=O)Nc2cccc3c2OCC(C)(C)n2nnnc2-3)cc1-n1cnc(C2CC2)c1 [Example 13, 5-(4-cyclopropyl-1H-imidazol-1-yl)-N-(5,5-dimethyl-5,6-dihydrobenzo[f]tetrazolo[1,5-d][1,4]oxazepin-8-yl)-2-fluoro-4-methylbenzamide]	5.2
Cc1cc(F)c(C(=O)Nc2cccc3c2OCC2(CC2)n2nnnc2-3)cc1-n1cnc(C2CC2)c1 [Example 14, 5-(4-cyclopropyl-1H-imidazol-1-yl)-2-fluoro-4-methyl-N-(6H-spiro[benzo[f]tetrazolo[1,5-d][1,4]oxazepine-5,1′-cyclopropan]-8-yl)benzamide]	4.2
O=C(Nc1cccc2c1OCC(CO)n1cnnc1-2)c1cc(-n2cnc(C3CC3)c2)ccn1 (stereo not drawn) [Example 15, 4-(4-cyclopropyl-1H-imidazol-1-yl)-N-(5-(hydroxymethyl)-5,6-dihydrobenzo[f][1,2,4]triazolo[4,3-d][1,4]oxazepin-8-yl)picolinamide]	5.8
Cc1cc(F)c(C(=O)Nc2cccc3c2OC[C@H](CO)n2cnnc2-3)cc1-n1cnc(C2CC2)c1 [Example 16, (S)-5-(4-cyclopropyl-1H-imidazol-1-yl)-2-fluoro-N-(5-(hydroxymethyl)-5,6-dihydrobenzo[f][1,2,4]triazolo[4,3-d][1,4]oxazepin-8-yl)-4-methylbenzamide]	5.2
Cc1cc(F)c(C(=O)Nc2cccc3c2OC[C@@H](CO)n2nnnc2-3)cc1-n1cnc(C2CC2)c1 [Example 17, (R)-5-(4-cyclopropyl-1H-imidazol-1-yl)-2-fluoro-N-(5-(hydroxymethyl)-5,6-dihydrobenzo[f]tetrazolo[1,5-d][1,4]oxazepin-8-yl)-4-methylbenzamide]	10.9
O=C(Nc1cccc2c1OC[C@@H](CO)n1nnnc1-2)c1cc(-n2cnc(C3CC3)c2)ccn1 [Example 18, (R)-4-(4-cyclopropyl-1H-imidazol-1-yl)-N-(5-(hydroxymethyl)-5,6-dihydrobenzo[f]tetrazolo[1,5-d][1,4]oxazepin-8-yl)picolinamide]	11.6
C[C@@H]1COc2c(NC(=O)c3cc(-n4cnc(C5CC5)c4)c(N4CCOCC4)cn3)cccc2-c2nnnn21 [Example 19, (R)-4-(4-cyclopropyl-1H-imidazol-1-yl)-N-(5-methyl-5,6-dihydrobenzo[f]tetrazolo[1,5-d][1,4]oxazepin-8-yl)-5-morpholinopicolinamide]	2.2
O=C(Nc1cccc2c1OCC1(CC1)n1nnnc1-2)c1cc(-n2cnc(C3CC3)c2)c(N2CCOCC2)cn1 [Example 20, 4-(4-cyclopropyl-1H-imidazol-1-yl)-5-morpholino-N-(6H-spiro[benzo[f]tetrazolo[1,5-d][1,4]oxazepine-5,1′-cyclopropan]-8-yl)picolinamide]	6
O=C(Nc1cccc2c1OCCn1nnnc1-2)c1cc(-n2cnc(C3CC3)c2)c(N2CCOCC2)cn1 [Example 21, 4-(4-cyclopropyl-1H-imidazol-1-yl)-N-(5,6-dihydrobenzo[f]tetrazolo[1,5-d][1,4]oxazepin-8-yl)-5-morpholinopicolinamide]	6
